Data: publication PMC7714403 (JCI Insight, 2020)

Columns and labels:
[1] = target: CaMK1d (Homo sapiens, UniProt Q8IU85); test: KiNativ, OCI cells live cell; format: cell-based; conditions: 2 h
[2] = target: PIK3CB (Homo sapiens, UniProt P42338); test: KiNativ, OCI cells live cell; format: cell-based; conditions: 2 h, labeling site ATP, peptide […]
[3] = target: PAK2 (Homo sapiens, UniProt Q13177); test: KiNativ, OCI cells live cell; format: cell-based; conditions: 2 h
[4] = target: MST1 (Homo sapiens, UniProt Q13043); test: KiNativ, OCI cells live cell; format: cell-based; conditions: labeling site Lys1, peptide ETGQIVAIKQVPVESDLQEIIK
[5] = target: FLT3 ITD (Homo sapiens, UniProt P36888, ITD); test: KdELECT binding assay
[6] = target: MELK (Homo sapiens, UniProt Q14680); test: KiNativ, OCI cells live cell; format: cell-based; conditions: 2 h, labeling site Lys2, peptide […]
MELK, sequence (Q14680 whole entry): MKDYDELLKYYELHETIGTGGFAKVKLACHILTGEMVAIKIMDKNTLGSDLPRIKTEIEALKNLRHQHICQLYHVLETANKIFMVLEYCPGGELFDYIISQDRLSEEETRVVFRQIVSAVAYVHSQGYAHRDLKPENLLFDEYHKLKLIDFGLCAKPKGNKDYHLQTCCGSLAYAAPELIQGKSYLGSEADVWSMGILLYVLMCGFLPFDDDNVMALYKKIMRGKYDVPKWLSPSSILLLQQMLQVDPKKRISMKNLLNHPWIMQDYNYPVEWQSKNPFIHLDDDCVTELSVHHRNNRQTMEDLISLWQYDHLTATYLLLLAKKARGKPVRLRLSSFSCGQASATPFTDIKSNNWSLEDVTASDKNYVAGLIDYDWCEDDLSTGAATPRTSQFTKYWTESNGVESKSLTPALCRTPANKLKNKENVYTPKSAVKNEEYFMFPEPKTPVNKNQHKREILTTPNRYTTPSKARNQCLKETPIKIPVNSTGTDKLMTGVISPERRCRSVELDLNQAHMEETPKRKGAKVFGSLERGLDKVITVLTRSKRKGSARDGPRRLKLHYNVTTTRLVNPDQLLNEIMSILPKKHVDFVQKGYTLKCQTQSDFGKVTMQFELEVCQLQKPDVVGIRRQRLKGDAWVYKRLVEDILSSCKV

[7] = test system: FGFR1, FMS, PDGFRb, TYRO3; test: KiNativ, OCI cells live cell; format: cell-based, human; conditions: labeling site Lys1, peptide VAVKMLK
[8] = target: PYK2 (Homo sapiens, UniProt Q14289); test: KiNativ, OCI cells live cell; format: cell-based; conditions: 2 h
PYK2, sequence (Q14289 whole entry): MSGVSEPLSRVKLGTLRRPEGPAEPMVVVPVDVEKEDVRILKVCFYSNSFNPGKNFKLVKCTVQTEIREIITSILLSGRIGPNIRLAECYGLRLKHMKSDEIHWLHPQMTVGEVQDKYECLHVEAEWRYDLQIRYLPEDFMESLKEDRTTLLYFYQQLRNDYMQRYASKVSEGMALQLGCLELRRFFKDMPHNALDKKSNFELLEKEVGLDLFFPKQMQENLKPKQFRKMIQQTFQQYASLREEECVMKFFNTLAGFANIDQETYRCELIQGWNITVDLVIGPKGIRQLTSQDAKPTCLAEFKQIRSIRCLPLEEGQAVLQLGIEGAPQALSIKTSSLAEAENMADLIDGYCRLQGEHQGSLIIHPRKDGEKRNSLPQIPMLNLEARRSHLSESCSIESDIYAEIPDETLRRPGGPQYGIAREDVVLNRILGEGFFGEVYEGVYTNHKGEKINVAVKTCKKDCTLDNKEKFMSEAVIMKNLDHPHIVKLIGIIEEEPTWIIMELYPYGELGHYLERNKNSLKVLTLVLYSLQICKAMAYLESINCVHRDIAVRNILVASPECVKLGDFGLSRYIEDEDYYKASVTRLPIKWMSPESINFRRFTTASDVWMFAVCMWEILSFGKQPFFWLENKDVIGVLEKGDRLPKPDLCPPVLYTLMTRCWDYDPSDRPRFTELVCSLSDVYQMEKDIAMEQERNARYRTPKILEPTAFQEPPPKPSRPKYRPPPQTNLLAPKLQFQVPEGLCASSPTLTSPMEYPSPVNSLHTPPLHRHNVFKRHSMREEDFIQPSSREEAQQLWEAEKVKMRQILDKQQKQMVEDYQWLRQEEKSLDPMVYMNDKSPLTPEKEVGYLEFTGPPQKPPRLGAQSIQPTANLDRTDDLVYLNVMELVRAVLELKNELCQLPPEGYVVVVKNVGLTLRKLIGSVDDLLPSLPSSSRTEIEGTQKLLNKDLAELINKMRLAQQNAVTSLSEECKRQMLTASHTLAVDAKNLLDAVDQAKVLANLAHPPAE

[9] = target: T1, PAN3 (Homo sapiens, UniProt Q58A45); test: KiNativ, OCI cells live cell; format: cell-based; conditions: 2 h, labeling site ATP
T1 sequence (Q58A45 1-887): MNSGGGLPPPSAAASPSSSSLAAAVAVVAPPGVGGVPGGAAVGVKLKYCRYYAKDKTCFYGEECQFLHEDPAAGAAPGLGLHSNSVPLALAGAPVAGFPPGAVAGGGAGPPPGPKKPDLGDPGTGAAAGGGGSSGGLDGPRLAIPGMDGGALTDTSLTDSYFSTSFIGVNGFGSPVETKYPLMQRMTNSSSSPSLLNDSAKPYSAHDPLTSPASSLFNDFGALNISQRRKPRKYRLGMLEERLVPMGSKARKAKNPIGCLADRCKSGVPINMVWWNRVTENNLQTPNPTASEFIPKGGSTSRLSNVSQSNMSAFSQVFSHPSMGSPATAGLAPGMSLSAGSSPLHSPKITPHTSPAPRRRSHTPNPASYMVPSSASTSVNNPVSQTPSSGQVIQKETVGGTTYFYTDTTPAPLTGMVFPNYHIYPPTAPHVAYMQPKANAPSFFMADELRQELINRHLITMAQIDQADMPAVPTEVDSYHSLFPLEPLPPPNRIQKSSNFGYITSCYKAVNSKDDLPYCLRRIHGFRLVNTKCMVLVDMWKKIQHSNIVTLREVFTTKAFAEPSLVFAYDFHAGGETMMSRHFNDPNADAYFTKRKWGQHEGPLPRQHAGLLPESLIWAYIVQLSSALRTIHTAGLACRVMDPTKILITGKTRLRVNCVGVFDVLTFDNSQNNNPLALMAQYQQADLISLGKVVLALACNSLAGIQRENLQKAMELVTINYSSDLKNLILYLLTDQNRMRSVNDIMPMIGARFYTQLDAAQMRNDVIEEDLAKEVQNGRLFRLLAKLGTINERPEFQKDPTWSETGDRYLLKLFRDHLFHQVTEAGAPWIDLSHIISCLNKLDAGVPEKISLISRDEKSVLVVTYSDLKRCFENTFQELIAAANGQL

[10] = target: CaMKK2 (Homo sapiens, UniProt Q96RR4); test: KiNativ, OCI cells live cell; format: cell-based; conditions: 2 h, labeling site Lys2, peptide […]
[11] = target: PHKg2 (Homo sapiens, UniProt P15735); test: KiNativ, OCI cells live cell; format: cell-based; conditions: 2 h, labeling site Lys1, peptide […]
[12] = target: CDK2 (Homo sapiens, UniProt P24941); test: KiNativ, OCI cells live cell; format: cell-based
[13] = target: T2, MAP2K4 (Homo sapiens, UniProt P45985); test: KiNativ, OCI cells live cell; format: cell-based; conditions: 2 h
T2 sequence (P45985 1-399): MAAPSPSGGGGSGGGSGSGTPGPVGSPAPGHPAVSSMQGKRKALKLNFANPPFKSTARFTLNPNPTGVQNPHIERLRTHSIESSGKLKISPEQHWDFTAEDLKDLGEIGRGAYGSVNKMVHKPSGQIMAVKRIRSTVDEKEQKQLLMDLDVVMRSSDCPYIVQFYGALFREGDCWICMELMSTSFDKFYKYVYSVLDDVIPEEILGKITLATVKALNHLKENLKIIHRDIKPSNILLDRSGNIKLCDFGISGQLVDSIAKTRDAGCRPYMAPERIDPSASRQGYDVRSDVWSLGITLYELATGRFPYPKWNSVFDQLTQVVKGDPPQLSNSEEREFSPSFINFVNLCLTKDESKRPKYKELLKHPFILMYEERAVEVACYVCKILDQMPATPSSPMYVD

[14] = test system: AMPKa1, AMPKa2; test: KiNativ, OCI cells live cell; format: cell-based, human
[15] = test system: MST3, MST4, YSK1; test: KiNativ, OCI cells live cell; format: cell-based, human; conditions: labeling site Activation Loop, peptide LADFGVAGQLTDTQIKR
[16] = target: MAP3K4 (Homo sapiens, UniProt Q9Y6R4); test: KiNativ, OCI cells live cell; format: cell-based; conditions: 2 h
[17] = target: TLK2 (Homo sapiens, UniProt Q86UE8); test: KiNativ, OCI cells live cell; format: cell-based; conditions: 2 h
TLK2, sequence (Q86UE8 whole entry, the tested form may be a part): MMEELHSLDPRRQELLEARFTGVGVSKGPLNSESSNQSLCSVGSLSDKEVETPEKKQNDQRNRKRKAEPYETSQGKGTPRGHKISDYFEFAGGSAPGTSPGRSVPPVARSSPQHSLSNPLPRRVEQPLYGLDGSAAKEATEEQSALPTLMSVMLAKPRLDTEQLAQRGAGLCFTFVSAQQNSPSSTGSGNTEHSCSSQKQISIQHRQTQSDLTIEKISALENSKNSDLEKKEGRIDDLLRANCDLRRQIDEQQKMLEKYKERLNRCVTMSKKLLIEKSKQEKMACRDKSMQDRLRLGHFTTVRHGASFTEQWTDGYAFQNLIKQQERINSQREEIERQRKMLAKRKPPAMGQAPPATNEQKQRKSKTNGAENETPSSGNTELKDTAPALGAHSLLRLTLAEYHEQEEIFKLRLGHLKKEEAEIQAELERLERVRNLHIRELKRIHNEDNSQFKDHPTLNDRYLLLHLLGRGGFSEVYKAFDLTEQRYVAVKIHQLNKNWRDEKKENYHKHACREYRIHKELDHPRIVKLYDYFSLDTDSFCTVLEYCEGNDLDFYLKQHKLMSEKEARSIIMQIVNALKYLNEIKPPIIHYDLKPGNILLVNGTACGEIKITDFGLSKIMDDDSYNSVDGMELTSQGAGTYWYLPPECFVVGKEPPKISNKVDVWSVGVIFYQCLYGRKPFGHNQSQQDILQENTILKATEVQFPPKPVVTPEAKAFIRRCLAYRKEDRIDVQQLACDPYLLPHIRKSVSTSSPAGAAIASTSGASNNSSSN

[18] = target: T3, GCN2 domain2 (Homo sapiens, UniProt Q9P2K8); test: KiNativ, OCI cells live cell; format: cell-based; conditions: 2 h
T3 construct: GCN2 domain2
T3 sequence (Q9P2K8 whole entry, the tested form may be a part): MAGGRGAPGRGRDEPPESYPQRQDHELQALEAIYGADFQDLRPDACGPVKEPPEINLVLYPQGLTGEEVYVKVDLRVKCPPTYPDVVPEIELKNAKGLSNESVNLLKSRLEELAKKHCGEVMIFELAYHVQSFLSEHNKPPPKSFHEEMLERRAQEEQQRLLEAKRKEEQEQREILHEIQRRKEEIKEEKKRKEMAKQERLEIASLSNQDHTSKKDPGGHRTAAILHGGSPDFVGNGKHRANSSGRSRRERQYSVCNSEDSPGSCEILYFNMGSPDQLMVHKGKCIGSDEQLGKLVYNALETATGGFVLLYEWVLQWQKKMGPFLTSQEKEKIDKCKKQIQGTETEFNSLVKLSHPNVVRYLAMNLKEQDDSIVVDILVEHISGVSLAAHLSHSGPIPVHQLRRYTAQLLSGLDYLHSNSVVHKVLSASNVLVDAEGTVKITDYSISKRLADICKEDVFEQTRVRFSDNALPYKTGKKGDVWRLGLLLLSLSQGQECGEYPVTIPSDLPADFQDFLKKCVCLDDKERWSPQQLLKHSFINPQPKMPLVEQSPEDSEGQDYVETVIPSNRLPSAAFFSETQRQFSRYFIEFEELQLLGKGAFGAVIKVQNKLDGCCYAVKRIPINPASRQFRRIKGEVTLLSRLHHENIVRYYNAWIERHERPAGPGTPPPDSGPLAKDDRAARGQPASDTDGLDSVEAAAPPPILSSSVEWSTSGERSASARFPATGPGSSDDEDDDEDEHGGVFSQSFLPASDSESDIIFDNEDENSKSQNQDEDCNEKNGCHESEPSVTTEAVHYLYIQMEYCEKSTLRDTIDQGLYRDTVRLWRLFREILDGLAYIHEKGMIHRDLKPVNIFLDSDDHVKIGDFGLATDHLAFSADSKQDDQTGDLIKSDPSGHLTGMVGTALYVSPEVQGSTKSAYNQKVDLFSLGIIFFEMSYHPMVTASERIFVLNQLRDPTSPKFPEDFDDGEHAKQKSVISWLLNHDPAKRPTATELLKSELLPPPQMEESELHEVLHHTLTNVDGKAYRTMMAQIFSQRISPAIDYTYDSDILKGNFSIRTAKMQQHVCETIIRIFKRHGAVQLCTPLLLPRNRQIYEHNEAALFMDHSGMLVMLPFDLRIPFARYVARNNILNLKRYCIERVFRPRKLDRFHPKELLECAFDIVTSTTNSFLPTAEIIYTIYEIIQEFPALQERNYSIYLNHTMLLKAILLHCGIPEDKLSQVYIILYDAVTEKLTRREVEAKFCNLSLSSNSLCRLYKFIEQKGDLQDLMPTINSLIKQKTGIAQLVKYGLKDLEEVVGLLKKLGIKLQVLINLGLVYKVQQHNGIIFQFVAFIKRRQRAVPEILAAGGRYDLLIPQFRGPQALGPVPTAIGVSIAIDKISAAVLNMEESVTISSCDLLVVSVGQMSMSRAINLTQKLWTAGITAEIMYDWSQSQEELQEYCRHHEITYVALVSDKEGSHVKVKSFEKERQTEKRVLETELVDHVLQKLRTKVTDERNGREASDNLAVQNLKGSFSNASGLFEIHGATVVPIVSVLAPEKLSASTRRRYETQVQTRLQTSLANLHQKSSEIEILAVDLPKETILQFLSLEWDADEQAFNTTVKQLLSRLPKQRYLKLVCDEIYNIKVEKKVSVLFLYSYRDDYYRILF

CaMK1d, sequence (Q8IU85 whole entry): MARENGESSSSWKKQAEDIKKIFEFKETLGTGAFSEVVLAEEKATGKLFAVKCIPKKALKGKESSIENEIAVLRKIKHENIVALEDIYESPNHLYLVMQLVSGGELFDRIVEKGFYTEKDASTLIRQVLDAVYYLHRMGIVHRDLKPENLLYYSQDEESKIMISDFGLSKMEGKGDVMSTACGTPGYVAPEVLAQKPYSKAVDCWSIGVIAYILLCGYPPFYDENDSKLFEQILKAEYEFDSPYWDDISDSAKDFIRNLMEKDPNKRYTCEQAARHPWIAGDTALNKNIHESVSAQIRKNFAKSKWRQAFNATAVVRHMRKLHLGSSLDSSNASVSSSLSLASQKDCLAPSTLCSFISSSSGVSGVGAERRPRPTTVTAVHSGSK
PAK2, sequence (Q13177 whole entry): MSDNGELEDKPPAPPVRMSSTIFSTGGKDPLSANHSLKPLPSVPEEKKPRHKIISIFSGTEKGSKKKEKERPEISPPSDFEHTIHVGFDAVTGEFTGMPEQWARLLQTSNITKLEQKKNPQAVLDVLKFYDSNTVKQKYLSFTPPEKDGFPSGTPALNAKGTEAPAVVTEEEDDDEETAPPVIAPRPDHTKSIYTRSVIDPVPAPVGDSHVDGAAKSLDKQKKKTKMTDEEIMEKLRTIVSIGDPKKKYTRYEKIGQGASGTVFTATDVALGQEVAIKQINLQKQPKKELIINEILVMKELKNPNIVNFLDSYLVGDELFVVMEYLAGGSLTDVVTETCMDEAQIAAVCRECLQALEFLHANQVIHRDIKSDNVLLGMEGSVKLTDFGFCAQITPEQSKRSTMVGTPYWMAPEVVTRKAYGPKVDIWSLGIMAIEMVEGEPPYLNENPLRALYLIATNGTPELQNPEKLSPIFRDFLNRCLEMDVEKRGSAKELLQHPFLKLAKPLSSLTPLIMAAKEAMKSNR

## CN1CCN(Cc2ccc(Nc3ncc(Cl)c(Nc4ccccc4S(=O)(=O)N(C)C)n3)cc2)CC1 [TP-0903]
[1]; labeling site Lys1, peptide LFAVKCIPK
  inhibition at 0.1 µM: 13%
[1]; labeling site Lys2, peptide DLKPENLLYYSQDEESK
  inhibition at 0.1 µM: 8.8%
[2]
  inhibition at 0.1 µM: -7.2%
[3]; labeling site Lys1, peptide IGQGASGTVFTATDVALGQEVAIKQINLQK
  inhibition at 0.1 µM: -53.1%
[3]; labeling site Other, peptide KNPQAVLDVLKFYDSNTVK
  inhibition at 0.1 µM: -21.3%
[4]
  Inhibition: 33.6%
[5]
  Kd: 5.6 nM
[6]
  inhibition at 0.1 µM: 13.5%
[7]
  Inhibition: 4.2%
[8]; labeling site Activation Loop, peptide YIEDEDYYKASVTR
  inhibition at 0.1 µM: 40.6%
[8]; labeling site Lys1, peptide INVAVKTCK
  inhibition at 0.1 µM: 80%
[9]; peptide IQKSSNFGYITSCYK
  inhibition at 0.1 µM: -8.4%
[9]; peptide VMDPTKILITGK
  inhibition at 0.1 µM: -9.4%
[10]
  inhibition at 0.1 µM: 63.2%
[11]
  inhibition at 0.1 µM: -5.7%
[12]; labeling site Lys1, peptide LTGEVVALKK
  Inhibition: 37.1%
[12]; labeling site Lys2, peptide DLKPQNLLINTEGAIK
  Inhibition: 41.4%
[13]; labeling site Activation Loop, peptide LCDFGISGQLVDSIAKTR
  inhibition at 0.1 µM: -0.165%
[13]; labeling site Lys1, peptide MVHKPSGQIMAVKR
  inhibition at 0.1 µM: 5.4%
[13]; labeling site Lys2, peptide DIKPSNILLDR
  inhibition at 0.1 µM: 3.5%
[14]; labeling site Lys1, peptide VAVKILNR
  Inhibition: 71.8%
[14]; labeling site Lys2, peptide DLKPENVLLDAHMNAK
  Inhibition: 75.1%
[15]
  Inhibition: -57.1%
[16]; labeling site Lys1, peptide VYTCISVDTGELMAMKEIR
  inhibition at 0.1 µM: 2.7%
[16]; labeling site Lys2, peptide DIKGANIFLTSSGLIK
  inhibition at 0.1 µM: 24.7%
[17]; labeling site Lys1, peptide YVAVKIHQLNK
  inhibition at 0.1 µM: -7.2%
[17]; labeling site Lys2, peptide YLNEIKPPIIHYDLKPGNILLVNGTACGEIK
  inhibition at 0.1 µM: -3.1%
[18]; labeling site Lys1, peptide LDGCCYAVKR
  inhibition at 0.1 µM: -6.9%
[18]; labeling site Lys2, peptide DLKPVNIFLDSDDHVK
  inhibition at 0.1 µM: -2.8%
